Results on 1 molecule are retold here after patent US20210253642A1, “CALPAIN MODULATORS AND THERAPEUTIC USES THEREOF BACKGROUND” (Blade Therapeutics, Inc., priority 2018, published 2021).

The conditions of this data set: from CC(C)[C@H](NC(=O)CC(Sc1ccccc1)[C@H](COC(=O)[C@@H](N)Cc1ccc(O[Si](C)(C)C(C)(C)C)cc1)NC(=O)OC(C)(C)C)C(=O)O; amide bond; FDPP; DMF; 6.97 mM; 20.0 °C; 8.0 h.

`CC(C)[C@@H]1NC(=O)CC(Sc2ccccc2)[C@@H](NC(=O)OC(C)(C)C)COC(=O)[C@H](Cc2ccc(O[Si](C)(C)C(C)(C)C)cc2)NC1=O` (stereo partly shown) showed a ring closure, yield of all isomers of 39.4%.
